Patent publication US20230218542A1, “MEDICAMENT FOR TREATING HYPERTENSION” (priority 2022, published 2023)

Tested on: L-NAME-induced hypertensive rats
Assay: Therapeutic effect on L-NAME-induced hypertensive rats (Effect Verification 1), tail artery pressure
Type: in vivo, SD rats
Conditions: for antihypertensive effect (overall finding): SBP and DBP, three weeks of administration; for comparison of SBP with that in the group M: after the end of the administration (third week)
Description: The tail artery pressure, including systolic blood pressure (SBP) and diastolic blood pressure (DBP), was measured in rats in the resting state at the same time using an ALC-NIBP noninvasive blood pressure measuring instrument. One hundred and fifty-two 6-week-old male SD rats were taken and subjected to adaptive feeding for one week at room temperature of 18-26° C. with the relative humidity of 40%-70% and illumination by artificial lighting from 9:00 to 21:00 every day. After one week, blood pressure in all of them was measured, the results were charted using Excel 2010, and the experimental data were analyzed using SPSS 20.0, where P < 0.05 indicated statistical significance and the measurement data were expressed as x̅ ± s. […] According to the commonly used grading criteria for hypertension, SBP 140 mmHg is the critical value of hypertension, and every 20 mmHg is one grade. Every 10 mmHg of DBP is one grade. Therefore, SBP > 140 mmHg is set as mild hypertension and SBP > 160 mmHg is set as moderate hypertension; optionally, DBP increased by more than 10 mmHg is mild hypertension and DBP increased by more than 20 mmHg is moderate hypertension.
Rats with the blood pressure in the normal range measured in the step 1 above and the weight of 200 ± 20 g were randomly taken and grouped into 7 groups: a control group (K) containing 8 rats, a model control group (M), a ligustrazine administration group (TMP, 60 mg/kg), a cannabidiol administration group (CBD, 60 mg/kg), and combined administration groups of TMP and CBD (divided into three groups in different ratios of 2:1 (XA), 1:1 (XB) and 1:2 (XC), TMP = 60 mg/kg, and CBD was 30 mg/kg, 60 mg/kg and 120 mg/kg, respectively). 10 rats were contained in each remaining group. Except for group K, 12 mg/kg L-NAME was administered intragastrically to the rest at 9:00 every day to manufacture a hypertension model, and distilled water was administered in an equal amount to K group. By the fourth week, blood pressure was measured in each group, and after individuals with SBP < 140 mmHg were excluded from the model, each group was administered for three weeks, and drug vehicles were administered in an equal amount to groups K and M. Blood pressure was measured once a week during the administration period. (The animal model was fasted for two hours before the administration, and the medicament was bathed to room temperature. TMP solution at 1 mL/100 g was firstly administered intragastrically to the combined administration groups of TMP and CBD, and after 1 h interval, CBD solution at the corresponding half volume was then administered intragastrically.)
One-way ANOVA analysis (Duncan) was used for pairwise comparisons among groups, and paired-sample t-test was used for before-and-after comparisons within groups. The change trend of SBP of rats in each group is shown in FIG. 2 and the change trend of DBP of rats in each group is shown in FIG. 3, and the abscissa “0” represents the fourth week of molding, i.e., the beginning of the administration period.

[1] = one week of intragastric administration
[2] = three weeks of intragastric administration
[3] = two weeks of intragastric administration

| Molecule | antihypertensive effect (overall finding) | decrease of SBP (after the end of the administration) | comparison of SBP with that in the group M | Effect = (SBP in model group - SBP in administration group)/(SBP in model group - SBP in control group) [1] | Effect = (SBP in model group - SBP in administration group)/(SBP in model group - SBP in control group) [2] | Effect = (SBP in model group - SBP in administration group)/(SBP in model group - SBP in control group) [3] |
| --- | --- | --- | --- | --- | --- | --- |
| C=C(C)[C@@H]1CCC(C)=C[C@H]1c1c(O)cc(CCCCC)cc1O [CBD, cannabidiol] | significant antihypertensive effect | more than 10 mmHg | significant difference | 0.3222 | 0.3418 | 0.3628 |
| ligustrazine phosphate [TMP] | no significant antihypertensive effect |  | no significant difference | 0.0716 | 0.1722 | 0.0780 |
